# Laboratory results reported in ChEMBL document CHEMBL1201862, “PubChem BioAssay data set” (2004).
# Active and inactive are the calls of the source.
# Key:
# [1] = test system: Streptococcus sp. 'group A'; assay: Streptococcus pyogenes SK(-)GAS viability under kanamycin – luminescence, BacTiterGlo, confirmation, counter-screen for streptokinase expression inhibitor project, dose response (AID 1900); format: functional, organism-based
# [2] = viability loss in HeLa cells – cytotoxicity control for MgcRacGAP inhibitor project, dose response (AID 624300); format: functional
# Streptococcus = assay: GAS UMAA2166 growth inhibition – luminescence, BacTiterGlo, counter-screen for streptokinase expression inhibitor project, dose response (AID 1915); format: functional, organism-based;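 note: potency for reduction of bacterial viability or growth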
# [3] = Counterscreen for AddAB inhibitors: absorbance-based bacterial cell-based high throughput dose response assay for inhibitors of bacterial viability. [Related pubchem assays (depositor defined):AID435030, AID449728, AID449731, AID488942, AID488955, AID488956]; format: functional
# Streptokinase A = target: T1, Streptokinase A (Streptococcus pyogenes serotype M1, UniProt P10520); assay: viability-normalized secreted streptokinase activity reduction – plasminogen activation absorbance, OD405, dose response (AID 1914); format: functional, Streptococcus pyogenes M1 GAS;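 note: secreted streptokinase activity via plasminogen activation per viability signal from cell pellet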
# T1 sequence (P10520 whole entry): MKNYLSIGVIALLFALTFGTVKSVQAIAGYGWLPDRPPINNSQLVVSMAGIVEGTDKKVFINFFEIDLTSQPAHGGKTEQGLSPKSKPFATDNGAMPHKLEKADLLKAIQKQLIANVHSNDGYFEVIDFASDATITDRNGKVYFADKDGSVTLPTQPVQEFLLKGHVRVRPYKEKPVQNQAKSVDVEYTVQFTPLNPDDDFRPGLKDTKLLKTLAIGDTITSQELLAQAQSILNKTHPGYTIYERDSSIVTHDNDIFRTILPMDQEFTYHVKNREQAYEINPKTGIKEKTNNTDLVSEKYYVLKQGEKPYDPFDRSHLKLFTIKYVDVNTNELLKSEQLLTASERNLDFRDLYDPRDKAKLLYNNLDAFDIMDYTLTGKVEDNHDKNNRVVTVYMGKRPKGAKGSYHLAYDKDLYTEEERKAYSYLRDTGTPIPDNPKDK
# Exodeoxyribonuclease V = target: T2, Exodeoxyribonuclease V (Escherichia coli (strain K12), UniProt P04993+P07648+P08394); assay: RecBCD inhibition via phage-restricted bacterial growth – absorbance, V66 E. coli, mutant T4 phage, counter-screen for AddAB inhibitor project, dose response (AID 492957); format: functional, cell-based, Escherichia coli str. K-12 substr. MG1655
# T2 sequence (P04993 whole entry): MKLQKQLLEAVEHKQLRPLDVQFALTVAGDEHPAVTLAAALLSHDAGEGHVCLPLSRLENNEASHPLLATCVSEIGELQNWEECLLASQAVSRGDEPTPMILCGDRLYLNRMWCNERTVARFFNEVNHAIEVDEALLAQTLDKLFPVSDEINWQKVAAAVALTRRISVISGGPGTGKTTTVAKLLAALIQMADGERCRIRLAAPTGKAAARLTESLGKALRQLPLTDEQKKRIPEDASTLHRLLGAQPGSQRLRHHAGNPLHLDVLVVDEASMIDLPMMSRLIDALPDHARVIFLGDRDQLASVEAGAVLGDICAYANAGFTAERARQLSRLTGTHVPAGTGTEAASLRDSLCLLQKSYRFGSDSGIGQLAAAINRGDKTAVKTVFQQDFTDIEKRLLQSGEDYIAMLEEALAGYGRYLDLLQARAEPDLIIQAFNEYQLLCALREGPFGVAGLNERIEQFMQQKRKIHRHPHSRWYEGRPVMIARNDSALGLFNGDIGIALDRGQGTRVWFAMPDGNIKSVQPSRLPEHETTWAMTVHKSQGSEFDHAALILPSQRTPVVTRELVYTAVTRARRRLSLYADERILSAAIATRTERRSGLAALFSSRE
# T2 sequence (P07648 whole entry): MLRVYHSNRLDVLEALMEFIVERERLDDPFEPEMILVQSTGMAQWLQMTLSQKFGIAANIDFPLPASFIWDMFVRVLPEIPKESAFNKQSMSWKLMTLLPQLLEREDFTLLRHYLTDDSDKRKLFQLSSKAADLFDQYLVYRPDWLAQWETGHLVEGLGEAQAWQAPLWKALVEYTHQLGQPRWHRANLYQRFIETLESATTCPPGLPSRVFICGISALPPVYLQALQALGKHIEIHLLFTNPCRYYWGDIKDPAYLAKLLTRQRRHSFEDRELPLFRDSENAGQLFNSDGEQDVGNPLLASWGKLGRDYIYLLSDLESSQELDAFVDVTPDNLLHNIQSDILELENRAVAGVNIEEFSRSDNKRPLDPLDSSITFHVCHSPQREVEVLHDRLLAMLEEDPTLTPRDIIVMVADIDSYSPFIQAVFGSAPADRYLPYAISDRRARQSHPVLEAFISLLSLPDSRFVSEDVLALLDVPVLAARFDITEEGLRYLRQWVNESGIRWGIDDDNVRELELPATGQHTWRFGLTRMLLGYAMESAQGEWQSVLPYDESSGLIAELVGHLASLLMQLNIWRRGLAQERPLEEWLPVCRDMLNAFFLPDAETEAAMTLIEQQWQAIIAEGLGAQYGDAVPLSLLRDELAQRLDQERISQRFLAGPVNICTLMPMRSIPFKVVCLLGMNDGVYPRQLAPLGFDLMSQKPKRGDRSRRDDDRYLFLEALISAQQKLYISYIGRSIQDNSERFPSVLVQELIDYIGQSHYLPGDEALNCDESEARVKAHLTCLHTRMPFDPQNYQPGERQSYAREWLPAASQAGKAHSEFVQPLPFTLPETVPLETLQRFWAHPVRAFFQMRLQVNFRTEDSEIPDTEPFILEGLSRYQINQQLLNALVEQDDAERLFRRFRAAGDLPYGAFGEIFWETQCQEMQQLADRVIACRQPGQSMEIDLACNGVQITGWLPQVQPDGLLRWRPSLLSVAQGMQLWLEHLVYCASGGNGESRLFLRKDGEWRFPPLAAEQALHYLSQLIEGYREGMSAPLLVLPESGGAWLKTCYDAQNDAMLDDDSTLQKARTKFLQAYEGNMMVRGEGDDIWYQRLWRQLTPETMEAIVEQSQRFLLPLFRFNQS
# T2 sequence (P08394 whole entry): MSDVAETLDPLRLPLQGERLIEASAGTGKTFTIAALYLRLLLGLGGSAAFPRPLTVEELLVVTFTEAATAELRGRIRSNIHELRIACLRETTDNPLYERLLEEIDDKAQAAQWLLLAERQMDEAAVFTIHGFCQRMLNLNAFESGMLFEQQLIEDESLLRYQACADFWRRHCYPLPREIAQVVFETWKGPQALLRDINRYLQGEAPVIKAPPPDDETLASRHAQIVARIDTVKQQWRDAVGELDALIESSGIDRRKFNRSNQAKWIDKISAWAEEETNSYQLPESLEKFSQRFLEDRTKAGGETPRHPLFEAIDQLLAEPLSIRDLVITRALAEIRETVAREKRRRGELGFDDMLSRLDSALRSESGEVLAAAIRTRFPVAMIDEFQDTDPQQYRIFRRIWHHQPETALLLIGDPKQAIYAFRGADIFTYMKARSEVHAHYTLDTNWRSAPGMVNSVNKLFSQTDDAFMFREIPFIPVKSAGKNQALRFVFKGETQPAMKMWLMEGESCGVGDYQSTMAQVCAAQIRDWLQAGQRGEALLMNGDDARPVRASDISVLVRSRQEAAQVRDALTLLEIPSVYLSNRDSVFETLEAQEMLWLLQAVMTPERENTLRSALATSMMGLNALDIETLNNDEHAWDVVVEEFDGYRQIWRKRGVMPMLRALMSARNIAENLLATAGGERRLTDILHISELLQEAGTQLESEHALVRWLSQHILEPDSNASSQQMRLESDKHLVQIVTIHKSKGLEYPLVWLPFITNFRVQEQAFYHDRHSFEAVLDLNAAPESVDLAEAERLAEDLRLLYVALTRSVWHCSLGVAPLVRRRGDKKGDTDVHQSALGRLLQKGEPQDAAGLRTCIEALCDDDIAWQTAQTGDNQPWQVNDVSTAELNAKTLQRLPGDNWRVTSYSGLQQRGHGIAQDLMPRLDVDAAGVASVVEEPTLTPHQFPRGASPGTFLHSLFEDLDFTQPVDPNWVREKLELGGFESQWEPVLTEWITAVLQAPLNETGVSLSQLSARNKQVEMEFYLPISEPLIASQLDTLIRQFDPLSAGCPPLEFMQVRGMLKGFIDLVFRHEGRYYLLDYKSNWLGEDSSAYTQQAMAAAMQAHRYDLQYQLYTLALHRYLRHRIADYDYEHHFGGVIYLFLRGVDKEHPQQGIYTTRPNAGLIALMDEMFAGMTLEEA
# [4] = target: T3, Endoribonuclease toxin MazF (Escherichia coli K-12, UniProt P0AE70); assay: substrate-only fluorescence increase artefacts – biochemical, single-stranded RNase substrate, counter-screen for MazEF activator project, dose response (AID 588502); format: functional
# T3 sequence (P0AE70 whole entry): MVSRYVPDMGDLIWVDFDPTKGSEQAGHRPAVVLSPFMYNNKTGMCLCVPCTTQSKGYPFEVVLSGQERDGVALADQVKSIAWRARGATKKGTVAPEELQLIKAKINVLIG
# [5] = target: T3, Endoribonuclease toxin MazF; assay: activation of MazEF endoribonuclease cleavage – biochemical, fluorescence, single-stranded RNA substrate, uHTS hits, dose response (AID 588481); format: functional
# INS1 = assay: INS-1E survival protection against cytokine death – cell-based, luminescence, retest, dose response (AID 449756); format: functional; conditions: Rattus norvegicus;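 note: cell death triggered by IL-1 beta plus TNF-alpha plus IFN-gamma mixture; protective hits raise ATP signal compared with cytokine alone wells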
# [6] = viability loss of HMLE_sh_eGFP cells – cell-based, luminescence, counter-screen for HMLE_sh_ECad selective toxicity project, dose response (AID 463074); format: functional, Homo sapiens;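 note: HMLE human mammary epithelial cells expressing control shRNA against eGFP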
# [7] = Luminescence Cell-Based Dose Retest to Confirm Inhibitors of Cancer Stem Cells. [Related pubchem assays (depositor defined):AID2717, AID2721]; format: functional; conditions: Homo sapiens
# [8] = DRD fibroblast viability loss – cell-based, non-viral oncogenic, luminescence, dose response (AID 1934); format: functional; conditions: Homo sapiens
# BJ [9] = assay: BJ-TERT-LT-ST fibroblast viability loss – cell-based, RAS-independent, luminescence, dose response (AID 1935); format: functional; conditions: Homo sapiens;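 note: BJ fibroblasts immortalized with TERT plus LT and ST oncogenes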
# BJ [10] = assay: BJ-TERT fibroblast viability loss – cell-based, RAS-independent, luminescence, dose response (AID 1933); format: functional; conditions: Homo sapiens
# BJ [11] = assay: cells; format: functional, cell-based; conditions: Homo sapiens
compound,measurement,setting,value
O=C(NC(NC(=S)Nc1ccc(Cl)c(Cl)c1)C(Cl)(Cl)Cl)c1ccco1 (stereo unspecified),EC50,[1],4.32 µM (active)
same,CC50,[2],57.7 µM (active)
same,EC50,Streptococcus,10.9 µM (active)
same,IC50,[3],> 119 µM (inactive)
same,EC50,Streptokinase A,10.9 µM (active)
same,IC50,Exodeoxyribonuclease V,> 119 µM (inactive)
O=[N+]([O-])c1ccc2[nH]c(O)c(N=Nc3ccc(F)cc3)c2c1,EC50,[4],20.3 µM (inactive)
same,EC50,[5],> 99 µM (inactive)
Cc1cc(N/N=C/c2ccc([N+](=O)[O-])o2)nc2ccccc12,IC50,[3],> 118 µM (inactive)
same,IC50,Exodeoxyribonuclease V,> 118 µM (inactive)
C=CCc1cccc(/C=N/NC(=O)CCC(=O)Nc2ccc(F)cc2)c1O,AC50,INS1,3.18 µM (active)
same,IC50,[3],> 119 µM (inactive)
same,IC50,Exodeoxyribonuclease V,> 119 µM (inactive)
Cc1cccc(NC(=S)N/N=C/c2cccc(O)c2)c1C,AC50,[6],33.7 µM (active)
same,AC50,[7],1.15 µM (active)
same,EC50,[8],2.75 µM (active)
same,EC50,BJ [9],2.91 µM (active)
same,EC50,BJ [10],11.3 µM (active)
same,EC50,BJ [11],26 µM (inconclusive)
Cc1ccc(N/N=C(\Cc2nc3ccccc3[nH]2)c2ccccc2)cc1,AC50,[6],0.385 µM (inconclusive)
same,AC50,[7],0.47 µM (active)
